These results are taken from PMC11096667 (Cell reports, 2024).

In series [1] the test system is TRPM7. Conditions: cited from earlier work.
For series [2], the system named is TRPM6. Conditions: cited from earlier work.
Series [3] concerns the molecule itself. The experiment in a line: cryo-EM structure.

As for `c1ccc2c(c1)CCC[C@H]2Nc1nc2ccccc2[nH]1` [NS8593], the “inhibition of TRPM7” value in series [1] is listed as “inhibits”. Also, the “inhibition of TRPM6” value in series [2] is on record as “inhibits”. On to `N#Cc1ccc(COC[C@H]2O[C@@H](n3c(NCc4ccc(Cl)c(Cl)c4)nc4c(N)ncnc43)[C@H](O)[C@@H]2O)cc1` [VER155008], for which the “inhibition of TRPM7” value in series [1] is given as “potent inhibitor”. In series [2], the “activity against TRPM6” value is “inactive”.

B1: C-terminally truncated mouse TRPM7 (residues 1-1280) (domain or fragment, UniProt Q923J1 1-1280, looked up)
chain: MSQKSWIESTLTKRECVYIIPSSKDPHRCLPGCQICQQLVRCFCGRLVKQHACFTASLAMKYSDVKLGEHFNQAIEEWSVEKHTEQSPTDAYGVINFQGGSHSYRAKYVRLSYDTKPEIILQLLLKEWQMELPKLVISVHGGMQKFELHPRIKQLLGKGLIKAAVTTGAWILTGGVNTGVAKHVGDALKEHASRSSRKICTIGIAPWGVIENRNDLVGRDVVAPYQTLLNPLSKLNVLNNLHSHFILVDDGTVGKYGAEVRLRRELEKTINQQRIHARIGQGVPVVALIFEGGPNVILTVLEYLQESPPVPVVVCEGTGRAADLLAYIHKQTEEGGNLPDAAEPDIISTIKKTFNFGQSEAVHLFQTMMECMKKKELITVFHIGSEDHQDIDVAILTALLKGTNASAFDQLILTLAWDRVDIAKNHVFVYGQQWLVGSLEQAMLDALVMDRVSFVKLLIENGVSMHKFLTIPRLEELYNTKQGPTNPMLFHLIRDVKQGNLPPGYKITLIDIGLVIEYLMGGTYRCTYTRKRFRLIYNSLGGNNRRSGRNTSSSTPQLRKSHETFGNRADKKEKMRHNHFIKTAQPYRPKMDASMEEGKKKRTKDEIVDIDDPETKRFPYPLNELLIWACLMKRQVMARFLWQHGEESMAKALVACKIYRSMAYEAKQSDLVDDTSEELKQYSNDFGQLAVELLEQSFRQDETMAMKLLTYELKNWSNSTCLKLAVSSRLRPFVAHTCTQMLLSDMWMGRLNMRKNSWYKVILSILVPPAILMLEYKTKAEMSHIPQSQDAHQMTMEDSENNFHNITEEIPMEVFKEVKILDSSDGKNEMEIHIKSKKLPITRKFYAFYHAPIVKFWFNTLAYLGFLMLYTFVVLVKMEQLPSVQEWIVIAYIFTYAIEKVREVFMSEAGKISQKIKVWFSDYFNVSDTIAIISFFVGFGLRFGAKWNYINAYDNHVFVAGRLIYCLNIIFWYVRLLDFLAVNQQAGPYVMMIGKMVANMFYIVVIMALVLLSFGVPRKAILYPHEEPSWSLAKDIVFHPYWMIFGEVYAYEIDVCANDSTLPTICGPGTWLTPFLQAVYLFVQYIIMVNLLIAFFNNVYLQVKAISNIVWKYQRYHFIMAYHEKPVLPPPLIILSHIVSLFCCVCKRRKKDKTSDGPKLFLTEEDQKKLHDFEEQCVEMYFDEKDDKFNSGSEERIRVTFERVEQMSIQIKEVGDRVNYIKRSLQSLDSQIGHLQDLSALTVDTLKTLTAQKASEASKVHNEITRELSISKHLAQNLID
Consider B1, for which, in series [3], the “stoichiometry N” value amounted to 4.

The term stoichiometry N denotes the number of molecules, sites or subunits per partner or assembly.
